What all share (type): functional
The test system of one assay is Aspergillus niger. Description: Antifungal activity against Aspergillus niger MTCC 282 after 72 hr. Particulars: MTCC 282, 72 h.
In a further assay the test system is Staphylococcus aureus. Description: Antibacterial activity against Staphylococcus aureus MTCC 96 after 24 to 48 hr by serial broth dilution method.
The test system of another assay is Streptococcus pyogenes. Description: Antibacterial activity against Streptococcus pyogenes MTCC 442 after 24 to 48 hr by serial broth dilution method.
The test system of a further assay is Candida albicans. Description: Antifungal activity against Candida albicans MTCC 227 after 72 hr. The conditions noted are these: MTCC 227, 72 h.
For a further assay, the system named is Pseudomonas aeruginosa. Kind of assay: Antibacterial activity against Pseudomonas aeruginosa MTCC 1688 after 24 to 48 hr by serial broth dilution method. For orientation: In broth dilution the organism is exposed to a series of concentrations in liquid medium.
Another assay concerns Aspergillus clavatus. Description: Antifungal activity against Aspergillus clavatus MTCC 1323 after 72 hr. Particulars: MTCC 1323, 72 h.
Another assay relates to Escherichia coli. Kind of assay: Antibacterial activity against Escherichia coli MTCC 443 after 24 to 48 hr by serial broth dilution method.

Converted amounts (≈) assume the structure as drawn.

Usually MIC99 stands for an inhibitory concentration at the 99% level, which refers to growth in some studies and to a panel of isolates in others. Higher therefore signals weaker potency. As to `O=C(Nn1c(S)nnc1-c1cccc2ccccc12)c1cccc(Cl)c1`, the MIC99 against Aspergillus niger came to 50 µg/mL (≈ 131 µM); with Staphylococcus aureus it was 250 µg/mL (≈ 656 µM); in the assay with Streptococcus pyogenes, 100 µg/mL (≈ 263 µM); against Candida albicans, 50 µg/mL (≈ 131 µM); with Pseudomonas aeruginosa it was 250 µg/mL (≈ 656 µM); in the assay on Aspergillus clavatus, 50 µg/mL (≈ 131 µM). This molecule also yielded an MIC99 against Escherichia coli of 25 µg/mL (≈ 65.6 µM).

Regarding `Cc1ccccc1C(=O)Nn1c(S)nnc1-c1cccc2ccccc12`, the MIC99 in the assay with Aspergillus niger came out at 500 µg/mL (≈ 1390 µM); against Staphylococcus aureus, 500 µg/mL (≈ 1390 µM); against Streptococcus pyogenes, 100 µg/mL (≈ 277 µM); in the assay on Candida albicans, 200 µg/mL (≈ 555 µM); with Pseudomonas aeruginosa, 100 µg/mL (≈ 277 µM); with Aspergillus clavatus, 100 µg/mL (≈ 277 µM). Besides, the MIC99 with Escherichia coli worked out at 100 µg/mL (≈ 277 µM).

Regarding `COC1=CC(=O)C[C@@H](C)[C@]12Oc1c(Cl)c(OC)cc(OC)c1C2=O` [GRISEOFULVIN], the MIC99 in the assay with Aspergillus niger was found to be 100 µg/mL (≈ 283 µM); against Candida albicans, 500 µg/mL (≈ 1420 µM); with Aspergillus clavatus, 100 µg/mL (≈ 283 µM).

With `CC1(C)S[C@@H]2[C@H](NC(=O)[C@H](N)c3ccccc3)C(=O)N2[C@H]1C(=O)O` [AMPICILLIN], the MIC99 in the assay with Staphylococcus aureus was 250 µg/mL (≈ 715 µM); against Streptococcus pyogenes it was 100 µg/mL (≈ 286 µM); in the assay on Pseudomonas aeruginosa it was 100 µg/mL (≈ 286 µM); against Escherichia coli, 100 µg/mL (≈ 286 µM).

In the case of `O=C(Nn1c(S)nnc1-c1cccc2ccccc12)c1ccccc1Cl`, the MIC99 was 100 µg/mL (≈ 263 µM) against Aspergillus niger; 500 µg/mL (≈ 1310 µM) against Staphylococcus aureus; 500 µg/mL (≈ 1310 µM) against Streptococcus pyogenes; 50 µg/mL (≈ 131 µM) against Candida albicans; 100 µg/mL (≈ 263 µM) against Pseudomonas aeruginosa; 250 µg/mL (≈ 656 µM) in the assay with Aspergillus clavatus. In addition, the MIC99 with Escherichia coli amounted to 50 µg/mL (≈ 131 µM).

Turning to `O=C(Nn1c(S)nnc1-c1cccc2ccccc12)c1ccc(O)cc1`, the MIC99 in the assay on Aspergillus niger was 500 µg/mL (≈ 1380 µM); against Staphylococcus aureus, 100 µg/mL (≈ 276 µM); against Streptococcus pyogenes it was 500 µg/mL (≈ 1380 µM); in the assay with Candida albicans, 500 µg/mL (≈ 1380 µM); against Pseudomonas aeruginosa it was 100 µg/mL (≈ 276 µM); in the assay on Aspergillus clavatus, 500 µg/mL (≈ 1380 µM). Also, the MIC99 against Escherichia coli stood at 250 µg/mL (≈ 690 µM).

In the case of `O=C(COc1ccc2ccccc2c1)Nn1c(S)nnc1-c1cccc2ccccc12`, the MIC99 in the assay with Aspergillus niger worked out at 500 µg/mL (≈ 1170 µM); in the assay with Staphylococcus aureus it was 250 µg/mL (≈ 586 µM); in the assay on Streptococcus pyogenes it was 500 µg/mL (≈ 1170 µM); in the assay on Candida albicans it was 500 µg/mL (≈ 1170 µM); in the assay with Pseudomonas aeruginosa, 250 µg/mL (≈ 586 µM); with Aspergillus clavatus it was 500 µg/mL (≈ 1170 µM). The MIC99 in the assay on Escherichia coli was found to be 100 µg/mL (≈ 234 µM).

`COc1ccccc1C(=O)Nn1c(S)nnc1-c1cccc2ccccc12`: the MIC99 is 200 µg/mL (≈ 531 µM) with Aspergillus niger; 250 µg/mL (≈ 664 µM) in the assay with Staphylococcus aureus; 500 µg/mL (≈ 1330 µM) against Streptococcus pyogenes; 200 µg/mL (≈ 531 µM) with Candida albicans; 250 µg/mL (≈ 664 µM) in the assay with Pseudomonas aeruginosa; 500 µg/mL (≈ 1330 µM) in the assay on Aspergillus clavatus. In the assay on Escherichia coli, this molecule gave an MIC99 of 100 µg/mL (≈ 266 µM).

As to `O=C(Nn1c(S)nnc1-c1cccc2ccccc12)c1ccccc1O`, the MIC99 against Aspergillus niger worked out at 500 µg/mL (≈ 1380 µM); in the assay on Staphylococcus aureus, 500 µg/mL (≈ 1380 µM); in the assay with Streptococcus pyogenes it was 500 µg/mL (≈ 1380 µM); with Candida albicans, 500 µg/mL (≈ 1380 µM); with Pseudomonas aeruginosa, 1000 µg/mL (≈ 2760 µM); against Aspergillus clavatus, 200 µg/mL (≈ 552 µM). In the assay with Escherichia coli, this molecule displayed an MIC99 of 1000 µg/mL (≈ 2760 µM).

On to `O=C(Cc1ccccc1)Nn1c(S)nnc1-c1cccc2ccccc12`, for which the MIC99 is 500 µg/mL (≈ 1390 µM) in the assay on Aspergillus niger; 250 µg/mL (≈ 694 µM) with Staphylococcus aureus; 200 µg/mL (≈ 555 µM) against Streptococcus pyogenes; 1000 µg/mL (≈ 2770 µM) against Candida albicans; 500 µg/mL (≈ 1390 µM) against Pseudomonas aeruginosa; 500 µg/mL (≈ 1390 µM) against Aspergillus clavatus. The MIC99 with Escherichia coli stood at 500 µg/mL (≈ 1390 µM).

On to `O=C(Nn1c(S)nnc1-c1cccc2ccccc12)c1ccccc1`, for which the MIC99 in the assay on Aspergillus niger was found to be 1000 µg/mL (≈ 2890 µM); with Staphylococcus aureus, 500 µg/mL (≈ 1440 µM); against Streptococcus pyogenes it was 1000 µg/mL (≈ 2890 µM); in the assay with Candida albicans, 1000 µg/mL (≈ 2890 µM); against Pseudomonas aeruginosa, 50 µg/mL (≈ 144 µM); with Aspergillus clavatus it was 1000 µg/mL (≈ 2890 µM). In addition, in the assay on Escherichia coli, the MIC99 is 500 µg/mL (≈ 1440 µM).

As for `O=C(Nn1c(S)nnc1-c1cccc2ccccc12)c1cccc([N+](=O)[O-])c1`, the MIC99 against Aspergillus niger was 200 µg/mL (≈ 511 µM); in the assay with Staphylococcus aureus it was 100 µg/mL (≈ 255 µM); against Streptococcus pyogenes, 500 µg/mL (≈ 1280 µM); against Candida albicans, 200 µg/mL (≈ 511 µM); in the assay with Pseudomonas aeruginosa it was 100 µg/mL (≈ 255 µM); in the assay on Aspergillus clavatus, 100 µg/mL (≈ 255 µM). Further, the MIC99 in the assay with Escherichia coli was determined as 100 µg/mL (≈ 255 µM).

With `O=C(Nn1c(S)nnc1-c1cccc2ccccc12)c1ccc2cccc([N+](=O)[O-])c2c1`, the MIC99 in the assay with Aspergillus niger was 100 µg/mL (≈ 227 µM); in the assay with Staphylococcus aureus, 250 µg/mL (≈ 566 µM); in the assay on Streptococcus pyogenes, 250 µg/mL (≈ 566 µM); in the assay on Candida albicans it was 100 µg/mL (≈ 227 µM); in the assay on Pseudomonas aeruginosa, 100 µg/mL (≈ 227 µM); against Aspergillus clavatus, 50 µg/mL (≈ 113 µM). In the assay on Escherichia coli, this molecule came in with an MIC99 of 200 µg/mL (≈ 453 µM).

As for `O=C(Nn1c(S)nnc1-c1cccc2ccccc12)c1ccc([N+](=O)[O-])cc1`, the MIC99 against Aspergillus niger turned out to be 50 µg/mL (≈ 128 µM); in the assay with Staphylococcus aureus, 250 µg/mL (≈ 639 µM); in the assay on Streptococcus pyogenes it was 500 µg/mL (≈ 1280 µM); against Candida albicans, 50 µg/mL (≈ 128 µM); against Pseudomonas aeruginosa, 25 µg/mL (≈ 63.9 µM); against Aspergillus clavatus it was 50 µg/mL (≈ 128 µM). Also, the MIC99 with Escherichia coli came out at 50 µg/mL (≈ 128 µM).

The values above are taken from ChEMBL document CHEMBL3045867, “Synthesis, characterization, and antimicrobial evaluation of novel naphthalene-based 1,2,4-triazoles” (2012).
